Here are results for 13 compounds from publication PMC9132125 (Journal of natural products, 2016).

One may read the pIC50 as −log10 of the IC50, conventionally taken in molar units.

Data set [1] relates to KCL-22 and T315I KCL-22 CML cell lines. The experiment in a line: Biological screening at 1 μM on the two CML cell lines. In kind it is cell-based, human.
The subject of data set [2] is T315I mutant KCL-22 CML cells. Put plainly: MTS cell viability assay, imatinib-resistant T315I mutant KCL-22 CML cells. In kind it is cell-based, human. The following applies: 48 h exposure. Background: Tetrazolium dyes change colour on reduction, which living cells bring about.
The target of another data set is c-Src (Homo sapiens, UniProt P12931). Put plainly: Kinase assay in vitro. In kind it is biochemical. The conditions noted are these: recombinant protein, 33P-ATP.
Chain of c-Src (P12931 whole entry): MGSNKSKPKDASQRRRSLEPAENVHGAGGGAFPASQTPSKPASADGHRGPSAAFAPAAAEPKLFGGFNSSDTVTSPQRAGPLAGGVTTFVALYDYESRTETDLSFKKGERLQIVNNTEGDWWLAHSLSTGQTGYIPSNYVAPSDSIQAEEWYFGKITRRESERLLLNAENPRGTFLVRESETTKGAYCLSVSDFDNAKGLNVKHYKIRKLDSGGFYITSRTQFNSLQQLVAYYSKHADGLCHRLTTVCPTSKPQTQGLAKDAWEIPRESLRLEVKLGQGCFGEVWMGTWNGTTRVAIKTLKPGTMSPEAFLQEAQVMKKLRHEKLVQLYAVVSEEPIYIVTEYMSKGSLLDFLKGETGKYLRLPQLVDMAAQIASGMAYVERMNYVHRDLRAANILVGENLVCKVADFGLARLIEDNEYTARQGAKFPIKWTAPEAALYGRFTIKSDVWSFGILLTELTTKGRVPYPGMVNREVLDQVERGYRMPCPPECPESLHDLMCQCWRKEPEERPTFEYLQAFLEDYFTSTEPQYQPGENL
The next data set concerns GSK-3β. The conditions noted are these: read-out: GSK-3β IC50; previously published; cited from earlier work.

Molecules are shown by their SMILES. pIC50: −log10 of the molar value.

On to `O=C1Nc2ccccc2/C1=C1/Nc2ccccc2C1=O` [compound 1, Indirubin, reference compound], for which the “cytotoxic activity in the screening (in words)” value (“cytotoxic activity” below) in data set [1] is listed as “loss of activity”.
Consider `O=C1Nc2ccccc2/C1=C1/Nc2ccccc2/C1=N\O` [compound 2], for which the “cytotoxic activity” value in data set [1] is recorded as “loss of activity”.
Regarding `CN(CCO/N=C1/C(=C2/C(=O)Nc3cc(Br)ccc32)Nc2ccccc21)CC(O)CO` (stereo not drawn) [compound 17], in data set [2], the “T315I mutant KCL-22 IC50 range (in words)” value is on record as “submicromolar range”. The “c-Src IC50 range (in words)” value at c-Src was “picomolar”. Further, the pIC50 in the data set with GSK-3β was 7.17.
Take `CN(CCO/N=C1/C(=C2/C(=O)Nc3cc(Br)ccc32)Nc2ccccc21)CC(O)CO.Cl` (stereo not drawn) [compound 18]: the “T315I mutant KCL-22 IC50 range (in words)” value in data set [2] is on record as “submicromolar range”. Moreover, the “c-Src IC50 range (in words)” value on c-Src is reported as “picomolar”. Moreover, the negative-log IC50 (pIC50) in the data set with GSK-3β is 7.64.
Take `O=C1Nc2cc(Br)ccc2/C1=C1/Nc2ccccc2/C1=N\OCCN1CCCC1` [compound 19]: the “T315I mutant KCL-22 IC50 range (in words)” value in data set [2] is “submicromolar range”. Also, at c-Src, the “c-Src IC50 range (in words)” value was “nanomolar”. In addition, in the data set with GSK-3β, the negative logarithm of the IC50 (pIC50) was 7.59.
On to `Cl.O=C1Nc2cc(Br)ccc2/C1=C1/Nc2ccccc2/C1=N\OCCN1CCCC1` [compound 20], for which the “T315I mutant KCL-22 IC50 range (in words)” value in data set [2] was “submicromolar range”. Besides, the “c-Src IC50 range (in words)” value at c-Src is recorded as “nanomolar”. Besides, the pIC50 in the data set on GSK-3β is 7.27.
On to `Cl.Cl.O=C1Nc2cc(Br)ccc2/C1=C1/Nc2ccccc2/C1=N\OCCN1CCNCC1` [compound 22], for which the “T315I mutant KCL-22 IC50 range (in words)” value in data set [2] is “submicromolar range”. Further, at c-Src, the “c-Src IC50 range (in words)” value is recorded as “picomolar”.
Consider `COCCN1CCN(CCO/N=C2/C(=C3/C(=O)Nc4cc(Br)ccc43)Nc3ccccc32)CC1` [compound 27], for which the “T315I mutant KCL-22 IC50 range (in words)” value in data set [2] is listed as “submicromolar range”. Further, the “c-Src IC50 range (in words)” value at c-Src was “nanomolar”. Moreover, the pIC50 in the data set on GSK-3β was 6.96.
With `COCCN1CCN(CCO/N=C2/C(=C3/C(=O)Nc4cc(Br)ccc43)Nc3ccccc32)CC1.Cl.Cl` [compound 28], the “T315I mutant KCL-22 IC50 range (in words)” value in data set [2] is recorded as “submicromolar range”. For the same compound, at c-Src, the “c-Src IC50 range (in words)” value was “nanomolar”. In the data set on GSK-3β, the pIC50 was 6.70.
For `O=C1Nc2cc(Br)ccc2/C1=C1/Nc2ccccc2/C1=N\OCCN1CCN(CCOCCO)CC1` [compound 29], the “c-Src IC50 range (in words)” value on c-Src is on record as “picomolar”. For the same compound, the negative logarithm of the IC50 (pIC50) in the data set on GSK-3β is 7.85.
Consider `Cl.Cl.O=C1Nc2cc(Br)ccc2/C1=C1/Nc2ccccc2/C1=N\OCCN1CCN(CCOCCO)CC1` [compound 30], for which, in data set [2], the “T315I mutant KCL-22 IC50 range (in words)” value is recorded as “submicromolar range”.
Take `O=C1Nc2ccccc2/C1=C1/Nc2cc(Br)ccc2C1=O` [compound 57]: the “cytotoxic activity” value in data set [1] was “inactive”.
The same measure, in the same setting: the value for `O=C1Nc2ccccc2/C1=C1/Nc2cc(Br)ccc2/C1=N\O` [compound 58] was “inactive”.
